Consider five molecules from patent US20240391978A1, “APOLIPOPROTEIN FUSION PROTEINS FOR CELL-SPECIFIC IMMUNE REGULATION” (BIO-TRIP B.V., priority 2021, published 2024).

“Also recorded” adds a separate entry of the source.

For test [1], the system named is primary human monocytes. In words: In vitro inflammation inhibition, LPS-stimulated monocytes. Type of test: cell-based. Particulars: 1 hour pre-incubation with inhibitor (Table 2), IL4 + LPS 24 h. Here is the method: (§1) For pharmacological inhibition experiments, the monocytes were pre-incubated for 1 hour with one of the inhibitors described in Table 2 before addition of the training stimulus.
In vitro inflammation inhibition: Monocytes were adhered to a flat-bottom cell culture plate for 1 hour and washed with warm PBS to remove any non-adherent cells and cell debris. […] Following the initial 24-hour stimulation, the supernatants were collected and stored at −20° C. until further analysis with ELISA for IL6 and TNF.
(§2) Cytokine and lactate measurements: TNF, IL6, and IL1Ra were measured in cell culture supernatants using duoset ELISA kits (R&D systems), according to the manufacturer's instructions. For lactate measurements, a fluorometric assay was used. 30 μl sample, medium control, or known standard was added to a black 96-well plate. Then, 30 μl reaction mix (PBS pH 7.4, horse radish peroxidase (0.2 U/ml), lactate oxidase (2 U/ml), Amplex red (100 μM; Fisher scientific)) was added and the reaction was incubated for 20 minutes in the dark at RT. Immediately thereafter, fluorescence was measured at 530/25 nm and 590/35 nm. Gen5 software (v3.03, BioTek) was used in conjunction with Microsoft Excel to calculate cytokine and lactate concentrations in the original samples.

Test [2] deals with primary human monocytes. Nature of the test: In vitro model of trained immunity in primary human monocytes. Type of test: cell-based. Particulars: 1 hour pre-incubation with inhibitor (Table 2) before IL4 training.
Text: In vitro model of trained immunity in primary human monocytes: To induce trained immunity in primary human monocytes, a previously optimized and published method was used (Dominguez-Andres, J. et al. In vitro induction of trained immunity in adherent human monocytes. STAR Protoc 2, 100365, doi:10.1016/j.xpro.2021.100365 (2021); van Lier, D., Geven, C., Leijte, G. P. & Pickkers, P. Experimental human endotoxemia as a model of systemic inflammation. Biochimie 159, 99-106, doi:10.1016/j.biochi.2018.06.014 (2019)). Briefly: monocytes were adhered to a flat-bottom cell culture plate for 1 hour and washed with warm PBS to remove any non-adherent cells and cell debris. Then, they were stimulated (“trained”) for 24 hours with one of the stimuli detailed in Table 1, or medium only (“untrained” control).
as §1
Following the initial 24-hour stimulation, the cells were washed with warm PBS and warm cell culture medium was added. The monocytes were then allowed to rest and differentiate into macrophages for 5 days. On day 6, the induction of trained immunity was assessed. To this end, the cells were typically re-stimulated with LPS for an additional 24 hours to elicit cytokine production. The supernatants were collected and stored at −20° C. until further analysis, e.g. with ELISA for IL6 and TNF.
as §2

In the next test the target is T1, CD8 receptor (Mus musculus, UniProt P01731+P10300).
T1 construct: Spleens were obtained from mice, cut into pieces, and strained through a 70 μm strainer; from tissue; host or cells: mouse spleen (freshly isolated splenocytes)
T1 sequence (P01731 28-247): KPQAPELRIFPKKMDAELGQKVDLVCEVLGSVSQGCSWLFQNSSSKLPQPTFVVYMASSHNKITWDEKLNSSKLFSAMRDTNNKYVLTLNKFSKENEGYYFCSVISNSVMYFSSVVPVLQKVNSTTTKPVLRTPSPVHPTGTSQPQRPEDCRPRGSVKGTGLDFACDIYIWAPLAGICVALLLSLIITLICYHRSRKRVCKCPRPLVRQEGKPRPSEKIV
T1 sequence (P10300 22-213): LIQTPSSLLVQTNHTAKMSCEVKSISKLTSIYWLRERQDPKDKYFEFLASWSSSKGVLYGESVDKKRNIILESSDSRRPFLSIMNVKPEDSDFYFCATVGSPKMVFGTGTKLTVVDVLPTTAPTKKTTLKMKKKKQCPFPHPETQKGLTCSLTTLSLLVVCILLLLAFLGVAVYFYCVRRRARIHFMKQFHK
In words: In vitro binding of VHHCD8-apoA1 in mice splenocytes. Type of test: cell-based. Particulars: 30 minutes at 4° C. Here is the method: In vitro binding of VHHCD8-apoA1 in mice splenocytes: Spleens were obtained from mice, cut into pieces, and strained through a 70 μm strainer (Corning) multiple times to obtain a splenocyte suspension. Cells were spun down at 1500 rpm for 10 minutes, the supernatant was removed and the cells were dissolved in 2 mL 1× red blood cell lysis buffer (Thermofisher). Suspension was incubated at room temperature for 5 minutes, 10 mL Roswell Park Memorial Institute (RPMI) medium (Thermofisher) was added, and cells were again spun down at 1500 rpm for 10 minutes. Cells were then redissolved in RPMI medium and plated in a 96 wells plate at 150.000 cells/well.
The proteins were labeled by adding sulfo-cyanine5-maleimide (Lumiprobe) in dimethyl sulfoxide (DMSO) at a 5× molar excess. This mixture was incubated at room temperature for 2 hours. Excess dye was removed using a PD minitrap G-25 desalting column (Cytiva). Fluorescently labeled aNPs were formulated by adding 6.4 μg Dil for discoidal formulations and 21 μg Dil for spherical formulations (see section “formulating nanoparticles” of Example 2). […] (for aNPs) after which cells were harvested, washed, and stained for CD3 and CD4 and measured on Cytoflex (Beckman Coulter Inc.). Flow cytometry data was analyzed using FlowJo software (BD).

Test [3] deals with T2, IL4 receptor in human monocytes (Homo sapiens, UniProt P24394).
T2 construct: Human monocytes were isolated from a healthy donor's peripheral blood as described above; endogenous in cells; host or cells: primary human monocytes from a healthy donor's peripheral blood
T2 sequence (P24394 26-825): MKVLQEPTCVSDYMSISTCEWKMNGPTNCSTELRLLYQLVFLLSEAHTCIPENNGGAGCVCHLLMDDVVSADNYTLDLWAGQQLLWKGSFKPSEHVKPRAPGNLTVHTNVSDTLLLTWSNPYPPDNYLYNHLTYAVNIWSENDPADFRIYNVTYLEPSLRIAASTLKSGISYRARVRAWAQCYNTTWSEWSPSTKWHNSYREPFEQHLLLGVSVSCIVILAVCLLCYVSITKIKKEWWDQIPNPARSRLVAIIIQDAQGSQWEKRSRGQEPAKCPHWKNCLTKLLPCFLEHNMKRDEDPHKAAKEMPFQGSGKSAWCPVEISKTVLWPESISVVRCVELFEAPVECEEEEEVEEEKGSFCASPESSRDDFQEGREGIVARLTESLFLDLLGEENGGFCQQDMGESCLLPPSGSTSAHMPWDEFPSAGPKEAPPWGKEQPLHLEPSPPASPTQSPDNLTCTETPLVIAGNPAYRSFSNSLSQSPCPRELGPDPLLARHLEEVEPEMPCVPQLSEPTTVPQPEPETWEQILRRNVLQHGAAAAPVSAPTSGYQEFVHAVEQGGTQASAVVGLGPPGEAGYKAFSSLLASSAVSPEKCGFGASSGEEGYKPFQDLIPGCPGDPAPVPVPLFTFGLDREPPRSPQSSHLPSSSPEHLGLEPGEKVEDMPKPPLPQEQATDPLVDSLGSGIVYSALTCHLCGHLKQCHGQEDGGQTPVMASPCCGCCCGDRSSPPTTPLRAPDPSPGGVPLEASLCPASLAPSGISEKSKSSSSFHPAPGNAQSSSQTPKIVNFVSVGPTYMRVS
Nature of the test: Super-resolution fluorescence microscopy (dSTORM) of interactions with IL4 receptor. Type of test: cell-based. How it is done: 100,000 monocytes were seeded per well on a cell culture-treated chambered coverslip (μ-Slide 8-well, IBID). After 2 hours of incubation at 37° C. […] Subsequently, the cells were washed with PBS and fixed with 4% PFA for 20 minutes. […] The stained cells were stored in PBS at 4° C. For the direct stochastic optical reconstruction microscopy (dSTORM), the cells were immersed in GLOXY imaging buffer (40 μg/ml catalase, 0.5 mg/ml glucose oxidase, 5% glucose and 0.01 M cysteamine in PBS, pH 8.0) for a few minutes before and during the imaging. The acquisition was performed in Total Internal Reflection Fluorescence (TIRF) mode, using ONI Nanoimager (ONI, Oxford, UK). It is equipped with a 100×/1.4NA oil immersion objective, a sCMOS camera, and, in this study, 488 nm (200 mW) and 640 nm (1000 mW) lasers were used. 10000 frames were acquired with a 10 ms exposure time with the field of view of 50×80 μm. Raw data were processed using the ThunderSTORM software, yielding images with a spatial resolution of 10 nm.

A further test has as its system HEK-Blue™ IL4/IL13 cells. In words: Human embryonic kidney 293 IL4 reporter cell assay (Example 2). In kind it is cell-based. Particulars: IL4Rα/STAT6-inducible reporter. Here is the method:
This cell line has a fully active STAT6 pathway and carries a STAT6-inducible SEAP reporter gene. […] The levels of secreted SEAP can be determined with QUANTI-Blue™ (Invivogen). 180 μL DMEM with 10% FBS and 1% Pen-Strep containing […] was added per well in a 96-well-plate. Subsequently, 20 μL stimulus or vehicle was added and cells were incubated for 20-24 hours at 37° C. Subsequently, 180 μL QUANTI-Blue was added per well to a separate 96-well-plate (flat-bottom) and 20 μL of the cell supernatant was added. The plate was incubated for 1-3 hours at 37° C. and absorbance at 640 nm was measured on a Tecan Spark plate reader to determine SEAP levels.

The target of test [4] is T3, CD8 receptor on mouse splenocytes (mouse, UniProt P01731 28-247; P10300 22-213).
T3 construct: whole, on cells
T3 sequence (P01731 28-247, chain 1 of 2): as the sequence (P01731 28-247) above
T3 sequence (P10300 22-213, chain 2 of 2): as the sequence (P10300 22-213) above
In words: flow cytometry, fluorescently labelled protein on mouse splenocytes; upper panel 'MFI APC (CD8+) of CD3+ T cells'.
Protocol: The proteins were labeled by adding sulfo-cyanine5-maleimide (Lumiprobe) in dimethyl sulfoxide (DMSO) at a 5× molar excess. This mixture was incubated at room temperature for 2 hours. Excess dye was removed using a PD minitrap G-25 desalting column (Cytiva). […] Fluorescently labeled fusion proteins or aNPs and controls were added to the wells and incubated for 30 minutes at 4° C. (for proteins) or 37° C. (for aNPs) after which cells were harvested, washed, and stained for CD3 and CD4 and measured on Cytoflex (Beckman Coulter Inc.). Flow cytometry data was analyzed using FlowJo software (BD).

Take `NC(=O)c1cnc(NCCc2ccc(O)c(Cl)c2)nc1NCc1ccccc1` [AS1517499, reference compound]: in the test on primary human monocytes [1], the “effect of inhibitor on IL4's inhibition of acute inflammation (TNF, IL6)” value was “partly restored cytokine production in acute inflammatory responses”. Moreover, the “effect of inhibitor on trained immunity induction by IL4 (TNF, IL6)” value in the test on primary human monocytes [2] is “did not affect trained immunity induction by IL4”.

In the case of `CCC(=O)N1CCN(c2ccc(-n3c(=O)ccc4cnc5ccc(-c6cnc7ccccc7c6)cc5c43)cc2C(F)(F)F)CC1` [torin-1, Torin-1, reference compound], in the test on primary human monocytes [1], the “effect of inhibitor on IL4's inhibition of acute inflammation (TNF, IL6)” value is “did not abrogate the effect of IL4 on acute inflammation”. The “effect of inhibitor on trained immunity induction by IL4 (TNF, IL6)” value in the test with primary human monocytes [2] is recorded as “diminished the trained immunity responses; also recorded: significantly blunted”.

For apoA1, the “Mean Fluorescence Intensity (MFI) of fluorescently labeled protein” value on CD8 receptor was “did not show this dose dependent behavior”. In addition, in test [3] (Cy5-labeled, 2 h at 37° C.), the “binding to primary human monocytes (rim covering the cell surface)” value is reported as “confirmed”. In test [3] (zoomed in section of the membrane), the “association with IL4Rα on the cell surface (co-clusters)” value is “did not observe”.

For the molecule “apoA1-IL4: fusion protein of human apoA1 and human IL4 via flexible linker, 6his-tag and strep-tag (e.g. SEQ ID NO. 35)”, in the test with HEK-Blue™ IL4/IL13 cells, the “SEAP production by HEK-IL4 reporter cells” value is listed as “prominently produced”.

B1: VHHCD8-apoA1 fusion protein (VHH)
VHH: QVQLQESGGGLVQAGGSLRLSCAASGFTFDDYAIGWFRQAPGKEREGVSCINNSDGSGYVADSVKGRFTISSDNAKNTVYLQMNSLKPEDTAVYYCAAAGDGGCYYGLDYWGKGTQVTVSS
modifications: labelled with sulfo-cyanine5-maleimide (the linker between apoA1 and VHHCD8 comprises a cysteine)
notes: Fusion of an anti-CD8 VHH with apoA1, expressed in ClearColi; molecular weight 43.3 kDa
Turning to B1, the concentration giving a half-maximal response (EC50 (read off the curve)) in test [4] was approximately 5 nM.
